Results on one compound are retold here after patent US10543185B2, “Method for treating idiopathic pulmonary fibrosis” (The University of Chicago, priority 2015, dated 2020).

Molecules are shown by their SMILES.

The assay concerns patients with idiopathic pulmonary fibrosis (IPF). Nature of the assay: Independent replication cohort (INSPIRE trial and University of Chicago): NAC versus no NAC therapy, genotype-stratified. It counts as in vivo, human. As to conditions: for Replication cohort multivariate Cox interaction model coefficient, NAC Therapy term: FVC, DLCO, prednisone use, azathioprine use and study cohort; for Replication cohort multivariate Cox interaction model coefficient, SNP*NAC interaction term: adjusted as in the Table 9 footnote; for Genotype-stratified Composite Endpoint Risk Associated with NAC Therapy, HR: vs no NAC therapy. From the text:
The INSPIRE cohort consists of individuals enrolled in the industry-sponsored randomized clinical trial comparing interferon gamma-1b to placebo. […] Clinical and genetic data for patients providing informed consent to genetic testing were used to conduct the analysis. Patients were followed for up to 170 weeks after randomization.
The University of Chicago (UChicago) cohort consists of individuals followed in the UChicago ILD clinic from 2007-2013 who provided informed consent to undergo DNA testing. Patients were followed from time of initial evaluation until death, lung transplantation, loss-to-follow up or time of censoring (Sep. 9, 2013). Vital status was determined using telephone interviews with family members and the social security death index. Patients participating in PANTHER and INSPIRE were removed from the UC cohort.
To minimize the effects of population stratification, only participants that self-declared a non-Hispanic white ethnicity were included in the analysis. Demographic and clinical information extracted from the datasets included age, gender, race/ethnicity, treatment arm, pulmonary function testing (PFT) including forced vital capacity (FVC) and diffusion capacity for carbon monoxide (DLCO) and outcomes, including death, >10% decline in FVC, hospitalization and lung transplantation.
Hospitalization data were not available for patients in the replication cohort so composite endpoint-free survival was defined as time from trial enrollment (INSPIRE) or blood draw (UChicago) to death, ≥10% FVC decline or transplantation in those not receiving NAC therapy and time from NAC initiation to death, >10% FVC decline or transplantation in those receiving NAC therapy. Because follow-up time was longer for the UChicago compared to INSPIRE cohort, UChicago cohort survival time was censored at 170 weeks to allow for merging of the datasets. All statistical analysis was conducted using Stata (StataCorp. 2011. Release 12. College Station, Tex.).
Based on the findings above, interaction modeling was performed in an independent cohort between NAC therapy and rs3750920 (TOLLIP), rs5743894 (TOLLIP) and rs35705950 (MUC5B). Of the 771 non-Hispanic white individuals enrolled in the INSPIRE trial, DNA was available for 314. In the UChicago cohort, of 151 non-Hispanic white individuals with sequencing data, 91 had longitudinal PFT data and were included in the analysis. A summary of baseline demographic and clinical characteristics, along with genotype counts for the INSPIRE, UChicago and combined cohorts are shown in Table 8.

Where [1] appears, read: INSPIRE cohort, NAC recipients (n = 29).
[2] abbreviates: UChicago cohort, NAC recipients (n = 18).
Where [3] appears, read: combined replication cohort, NAC recipients (n = 47).

Take `CC(=O)N[C@@H](CS)C(=O)O` [NAC, (2R)-2-acetamido-3-sulfanylpropanoic acid]: the “Composite Endpoint, %” value is “(48.3) %” under setting [1], “(72.2) %” under setting [2] and “(57.5) %” under setting [3]. In addition, the “Death, %” value was “(20.7) %” under setting [1] and “(72.2) %” under setting [2]. Further, the “FVC Decline ≥10%, %” value by setting is: under setting [1], “(44.8) %”; under setting [2], “(22.2) %”; under setting [3], “(36.2) %”. The “Transplant, %” value under setting [1] was “(6.9) %”; the “Transplant, %” value under setting [2] is given as “(0) %”; the “Transplant, %” value under setting [3] is on record as “(4.3) %”. For the same compound, the “Replication cohort multivariate Cox interaction model coefficient, NAC Therapy term” value by setting is: (model with rs3750920 (TOLLIP), adjusted for age, gender) 1.37; (model with rs5743894 (TOLLIP), adjusted for age, gender) 0.54; (model with rs35705950 (MUC5B), adjusted for age, gender) 1.24. Moreover, the “Replication cohort multivariate Cox interaction model coefficient, SNP*NAC interaction term” value was −0.40 (model with rs5743894 (TOLLIP), term printed as rs3750920*NAC interaction); −0.86 (rs3750920 (TOLLIP) interaction); −1.30 (rs35705950 (MUC5B) interaction). The “Unadjusted Kaplan-Meier survival among NAC recipients, rs3750920 TT genotype versus CC or CT genotype” value (replication cohort, FIG. 3, p=0.03) is listed as “significantly better overall survival”. Moreover, the “Genotype-stratified Composite Endpoint Risk Associated with NAC Therapy, HR” value (replication cohort, rs3750920 (TOLLIP) CC, adjusted for age, gender, FVC and DLCO) was 3.51; the “Genotype-stratified Composite Endpoint Risk Associated with NAC Therapy, HR” value (replication cohort, rs3750920 (TOLLIP) CT) is 2.27; the “Genotype-stratified Composite Endpoint Risk Associated with NAC Therapy, HR” value (replication cohort, rs3750920 (TOLLIP) TT) stood at 0.23; the “Genotype-stratified Composite Endpoint Risk Associated with NAC Therapy, HR” value (replication cohort, rs35705950 (MUC5B) GG) amounted to 3.15; the “Genotype-stratified Composite Endpoint Risk Associated with NAC Therapy, HR” value (replication cohort, rs35705950 (MUC5B) GT/TT) was 0.94.
